Test results from patent US20120190707A1, “SELECTIVE INHIBITORS OF AKT AND METHODS OF USING SAME” (priority 2008, published 2012).

Experiments:
MCF7 cells = assay: Cell death by trypan blue staining, MCF7; type: cell-based; settings: 5 micro.M, 4 hours
Experimental: (§1) (A) MeWo melanoma cells growing in 60 mm plates were treated with the indicated concentration of the inhibitor for 4 h before proteins were prepared for western blot analysis using the indicated antibodies. Level of beta.actin was monitored as a control for protein loading. (B) Experiment was performed as indicated in panel A, except that cells were harvested after 24 h for analysis of cell death using trypan blue staining. (C) Melanoma (MeWo), prostate cancer (PC3) and breast cancer (MCF7) cells were treated with BI-69A11 at the indicated concentrations; levels of AKT phosphorylation or expression were assessed 4 h later. The level of beta.actin used as a control for protein loading. (D) Experiment was performed as indicated in panel C, except that cells were harvested after 4 h for analysis of cell death using trypan blue staining.
For the proliferation assays, cells were treated as described above. However, instead of scraping cells into the serum-free medium, floating cells were collected in a 15 mL centrifuge tube whereas adherent cells trypsinized gently. The total cell population was pooled and counted on a hemocytometer after staining with Trypan Blue.

AKT = AKT phosphorylation and expression by western blot in PC3 prostate tumor cells; type: cell-based; settings: PC3, 5 and 10 micro.M
Experimental: as §1
For western blotting techniques, cells were lysed in RIPA buffer containing 50 mM TrisHCl pH7.4, 150 mM NaCl, 2 mM EDTA, 1% NP-40, 0.1% SDS. The protein concentration was estimated using the Coomassie Protein assay kit (Thermo Scientific, Rockford, Ill., USA). Equal concentrations of cell lysate (30-50 ug) were resolved on a 10% polyacrylamide gel and transferred onto Nitrocellulose membrane (GE Amersham). Membranes were blocked for 1-2 hours in either 3% BSA or 5% nonfat dried milk in Tris-buffered saline containing 0.05% Tween 20. […]

ATM-CHK2 axis = assay: ATM and CHK2 phosphorylation (DNA damage response) western analysis in UACC903 cells; type: cell-based, human
Experimental: UACC903 melanoma cells were exposed to vehicle control or 10 μM BI-69A11 for 1 h prior to γ-irradiation (10 Gray). Cells were harvested at the indicated time points post-irradiation and whole cell lysates were subjected to western analysis for phosphorylated ATM, total ATM, phosphorylated Chk2, and PLCγ (as loading control).
FIG. 14 is an assessment of BI-69A11 analogs on Chk2 phosphorylation. UACC903 melanoma cells were exposed to vehicle control, 10 μM BI-69A11, or 10 μM analog for 2 h. Cells were harvested and whole cell lysates were subjected to western analysis for phosphorylated Chk2 and PLCγ (as loading control).
To accomplish this, we g-irradiated vehicle- or BI69A11-treated cells and examined ATM and CHK2 phosphorylation, a well-characterized surrogate of activation (FIG. 13). In vehicle-treated cells, g-irradiation led to the robust phosphorylation of ATM and CHK2.
We next examined the panel of BI-69A11 analogs for their ability to stimulate CHK2 phosphorylation in UACC903 cells (FIG. 14).
For western blotting techniques, cells were lysed in RIPA buffer containing 50 mM TrisHCl pH7.4, 150 mM NaCl, 2 mM EDTA, 1% NP-40, 0.1% SDS. The protein concentration was estimated using the Coomassie Protein assay kit (Thermo Scientific, Rockford, Ill., USA). Equal concentrations of cell lysate (30-50 ug) were resolved on a 10% polyacrylamide gel and transferred onto Nitrocellulose membrane (GE Amersham). Membranes were blocked for 1-2 hours in either 3% BSA or 5% nonfat dried milk in Tris-buffered saline containing 0.05% Tween 20. Primary antibody incubations were performed overnight at 4° C. with shaking. The blots were washed followed by incubation with a secondary antibody incubation for 1 hour at room temperature. After washing, the blots were scanned on the Odyssey Licor scanner at the appropriate wavelength and the image was captured using the Odyssey software.

Abl1 = Abl1 (Homo sapiens, UniProt P00519); assay: Non related protein kinase Abl1 inhibition; type: biochemical; settings: concentrations up to 100 μM
Abl1, sequence (P00519 whole entry, species assumed): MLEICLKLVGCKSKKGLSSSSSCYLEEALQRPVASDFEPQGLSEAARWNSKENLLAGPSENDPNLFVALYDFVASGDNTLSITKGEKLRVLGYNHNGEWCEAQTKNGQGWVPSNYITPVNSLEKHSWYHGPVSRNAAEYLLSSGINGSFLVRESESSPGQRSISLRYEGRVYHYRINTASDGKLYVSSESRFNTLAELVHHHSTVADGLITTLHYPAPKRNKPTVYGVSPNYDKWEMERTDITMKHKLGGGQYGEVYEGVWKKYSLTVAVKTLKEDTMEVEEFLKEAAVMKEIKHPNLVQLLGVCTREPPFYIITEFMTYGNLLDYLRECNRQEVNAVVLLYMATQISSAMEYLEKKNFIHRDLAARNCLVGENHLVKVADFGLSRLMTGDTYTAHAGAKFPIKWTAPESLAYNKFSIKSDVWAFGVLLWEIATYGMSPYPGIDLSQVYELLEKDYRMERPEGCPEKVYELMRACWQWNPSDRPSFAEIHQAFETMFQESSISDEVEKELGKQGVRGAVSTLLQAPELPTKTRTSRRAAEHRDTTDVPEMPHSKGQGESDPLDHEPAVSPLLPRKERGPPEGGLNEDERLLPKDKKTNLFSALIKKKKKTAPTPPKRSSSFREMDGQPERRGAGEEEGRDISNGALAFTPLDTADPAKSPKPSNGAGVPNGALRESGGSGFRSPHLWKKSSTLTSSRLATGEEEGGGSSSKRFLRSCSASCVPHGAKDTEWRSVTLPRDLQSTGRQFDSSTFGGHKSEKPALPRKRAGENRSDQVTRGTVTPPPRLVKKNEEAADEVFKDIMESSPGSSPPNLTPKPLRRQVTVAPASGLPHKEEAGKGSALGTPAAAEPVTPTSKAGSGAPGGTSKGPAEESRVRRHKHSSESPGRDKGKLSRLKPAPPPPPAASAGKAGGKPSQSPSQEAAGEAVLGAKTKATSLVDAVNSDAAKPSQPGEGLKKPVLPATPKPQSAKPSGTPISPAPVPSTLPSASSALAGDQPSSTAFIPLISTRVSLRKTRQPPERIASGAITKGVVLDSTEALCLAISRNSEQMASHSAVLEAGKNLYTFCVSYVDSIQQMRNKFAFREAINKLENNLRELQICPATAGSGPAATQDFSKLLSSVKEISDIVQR
From the text: In addition, we tested our compounds against a non related protein kinase, Abl1 (22), which is a tyrosine kinase under investigation in our laboratory.
We recently reported on the direct evaluation of a number of in silico approaches to identify AKT inhibitors (Forino et al., 2005) We achieved experimental validation of selected compounds using both a fluorescence-based enzymatic assay and a substrate phosphorylation assay involving the protein GSK-3 (Forino et al., 2005). Briefly, the virtual docking approach consists of selecting the top 4,000 out of 50,000 docked compounds, using a variety of computational docking approaches, including a consensus score among two different scoring functions (Forino et al., 2005). Of those, 100 compounds were selected based on ranking and favorable docking geometry.

UACC903 melanoma cells = assay: Cell death by trypan blue exclusion in UACC903 compared with 29-1 cells; type: cell-based, human
Experimental: (A) 903 and 29-1 cells were exposed to different concentrations of BI-69A11 or UV light as a positive control and the percentage of cell death determined by trypan blue exclusion assay. (B) PARP cleavage was determined in 903 and 29-1 cells after treatment with BI-69A11 at 2, 4 and 6 hours.
Since AKT activity is important for tumor cell survival, its inhibition is expected to result in cell death. We thus monitored cell death in melanoma cells that were treated with BI-69A11.
For the proliferation assays, cells were treated as described above. However, instead of scraping cells into the serum-free medium, floating cells were collected in a 15 mL centrifuge tube whereas adherent cells trypsinized gently. The total cell population was pooled and counted on a hemocytometer after staining with Trypan Blue. The percentage of dead cells was determined by calculating the number of dead cells/total cells X 100. This experiment was performed two times each in triplicate.

[1] = system: AKT association with HSP90; assay: AKT association with HSP90, immunoprecipitation from melanoma cells; type: cell-based, human; settings: 10.micro.M, 4 h
Experimental: FIG. 6 describes the effect of BI-69A11 on phosphorylation and total levels of AKT in UACC 903 (PTEN−) cells. (A) UACC903 and the modified clone 29-1 (PTEN+) cells were exposed to 10 micro.M BI-69A11 and 50 micro.M LY294002 (a PI3K inhibitor) and the levels of pAKT473 and total AKT determined by western analysis. […] (SF=Serum Free). (B) BI-69A11 inhibits PRAS40 phosphorylation. UACC903 melanoma cells or 29-1 cells (PTEN+) were subjected to treatment with IGF-1 (20 ng/mL) and the level of PRAS40 phosphorylation was assessed. […] The cells were collected, lysed and levels of pPRAS40 and total PRAS40 determined by western analysis. (C) AKT association with HSP90 is inhibited by BI-69A11. Human melanoma cells were treated with BI-69A11 (10.micro.M) or DMSO control for 4 h, followed by protein preparation and immunoprecipitation using antibodies to pan-AKT. MG132 treatment, when used, initiated 1 h prior to treatment and lasted up to the preparation of proteins (total of 5 h). The right panel depicts analysis of total lysates.
Among cellular proteins implicated in the regulation of AKT levels is the cellular chaperone HSP90. […] Thus we assessed whether association of AKT with HSP90 could be affected by BI-69A11. […]

SMILES: O=C(/C=C/c1nc2ccccc2[nH]1)c1c(O)nc2ccc(Cl)cc2c1-c1ccccc1 [Compound 2, (E)-3-(3-(1H-benzo[d]imidazol-2-yl)acryloyl)-6-chloro-4-phenylquinolin-2(1H)-one]
- viability of MCF7 cells (MCF7 cells): did not affect
- AKT protein levels (AKT): reduced levels of AKT protein
- basal level of AKT phosphorylation (AKT; 4 h): effectively inhibited
- ATM and CHK2 phosphorylation in the absence of radiation (ATM-CHK2 axis; 10 μM): leads to ATM and CHK2 phosphorylation
- ATM or CHK2 phosphorylation following g-irradiation (ATM-CHK2 axis; 10 μM for 1 h prior to γ-irradiation (10 Gray)): did not inhibit
- CHK2 phosphorylation / activation (ATM-CHK2 axis; 10 μM for 2 h): induced the activation of CHK2 to a similar extent
- inhibition of Abl1 (Abl1): did not affect
- cell death, PTEN mutant melanoma cells compared with 29-1 cells (UACC903 melanoma cells; FIG. 7A): more pronounced on PTEN mutant melanoma cells
- cell death of melanoma cells (UACC903 melanoma cells; concentrations as low as 1 micro.M, within 24 hours): effective cell death
- AKT association with HSP90 [1]: abolished
